The target in one assay is FGFR4-WT (Homo sapiens (Human), UniProt P22455). The experiment in a line: Omnia assay for potency assessment against FGFR4 enzyme. It counts as biochemical. The settings on record: method b: [FGFR4-WT]=2.5 nM (SignalChem), [ATP]=250 uM, [Y10-Sox]=10 uM. In short, it runs like this:
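Continuous fluorescence kinase assay using wild-type FGFR4 from either of two commercial sources, Tyr-Sox peptide substrate and ATP in pH 7.5 Tris buffer with MgCl2, EGTA, β-glycerophosphate, glycerol and DTT.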

The target of assay [1] is FGFR4 in MDA-MB-453 cells (Homo sapiens, UniProt P22455). Put plainly: Target occupancy assay with biotinylated covalent probe I-127. Format: cell-based.
Chain of FGFR4 in MDA-MB-453 cells (P22455 22-802 limits assumed): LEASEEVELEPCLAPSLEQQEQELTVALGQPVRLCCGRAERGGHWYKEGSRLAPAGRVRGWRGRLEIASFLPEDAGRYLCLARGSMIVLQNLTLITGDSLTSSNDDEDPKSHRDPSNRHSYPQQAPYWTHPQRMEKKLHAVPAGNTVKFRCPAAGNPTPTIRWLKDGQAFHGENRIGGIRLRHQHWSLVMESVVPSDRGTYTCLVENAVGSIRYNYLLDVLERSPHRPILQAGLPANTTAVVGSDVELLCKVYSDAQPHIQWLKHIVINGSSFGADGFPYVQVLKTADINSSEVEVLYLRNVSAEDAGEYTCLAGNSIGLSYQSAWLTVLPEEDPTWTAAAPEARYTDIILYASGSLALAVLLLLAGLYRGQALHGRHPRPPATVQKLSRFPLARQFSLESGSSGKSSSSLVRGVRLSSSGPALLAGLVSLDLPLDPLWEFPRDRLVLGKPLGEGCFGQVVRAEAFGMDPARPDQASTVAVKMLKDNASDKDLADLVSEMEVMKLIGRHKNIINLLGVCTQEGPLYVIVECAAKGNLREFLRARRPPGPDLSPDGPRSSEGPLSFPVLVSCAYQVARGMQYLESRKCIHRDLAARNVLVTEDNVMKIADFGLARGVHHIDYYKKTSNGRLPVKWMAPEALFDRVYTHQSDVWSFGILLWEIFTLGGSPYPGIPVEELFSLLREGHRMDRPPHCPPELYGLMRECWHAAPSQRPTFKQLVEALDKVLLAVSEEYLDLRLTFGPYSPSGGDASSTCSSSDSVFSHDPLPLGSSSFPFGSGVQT
Description: In order to assess free FGFR4 protein a biotinylated covalent probe was utilized. […] The reaction was incubated for 2 hr at room temperature. The samples and probe mixture were transferred to a FGFR4-coated MSD plate for 2 hr at room temperature. MSD signals were obtained with an anti-streptavidin Sulfo-tag (Meso Scale) antibody for 1 hr at room temperature. […] If a compound completely (100%) covalently modies FGFR4 no free FGFR4 should be available for covalent modification by the biotinylated probe and subsequent binding to streptavidin and detection.
The target of assay [2] is pFGFR4 in MDA-MB-453 cells (Homo sapiens, UniProt P22455). Put plainly: Washout experiment (pFGFR4 after compound removal). The settings on record: 1000-2000 nM for 1 hr, washed, followed up to 24 hr. It counts as cell-based. As for the experimental part:
The cells were allowed to settle down for 4 hrs and were then maintained in low-serum (0.1% FBS) media overnight. The following morning, the media was removed and the cells were treated with 1000-2000 nM of test compound in low-serum media for 1 hr. The cells were washed free of test compound (3×) with PBS (Invitrogen). One set of cells was immediately lysed as indicated above as the 0 hr time point. The remaining cells were incubated with the appropriate complete growth media (10-20% FBS) for 1, 2, 4, 8, 16 (in certain circumstances) and 24 hr. DMSO (0.5%) controls were collected at all time points.

“Also recorded” adds a separate entry of the source. Bounds are passed on as bounds.

Chain of FGFR4-WT (P22455 22-802): as the sequence (P22455 22-802 limits assumed) above
Chain of pFGFR4 in MDA-MB-453 cells (P22455 22-802 limits assumed): as above

Turning to `CCC(=O)Nc1cccc(CN2C(=O)N(c3c(Cl)c(OC)cc(OC)c3Cl)Cc3cnc(Nc4ccccc4NC(=O)CC)nc32)c1` [Compound I-234], at FGFR4-WT, the IC50 is 101 to 500 nM. Besides, the EC50 in assay [1] was more than 1000 nM. Besides, the “duration of action against pFGFR4 signalling after washout” value in assay [2] is “does not show prolonged duration of action; also recorded: does not have PDA”.
Turning to `CCC(=O)Nc1ccccc1Nc1ncc2c(n1)N(Cc1ccccc1)C(=O)N(c1c(Cl)c(OC)cc(OC)c1Cl)C2` [Compound I-236], the IC50 on FGFR4-WT was in the range of 101 to 500 nM. Besides, the EC50 in assay [1] is more than 1000 nM.
Regarding `C=CC(=O)NC1CCCCC1Nc1ncc2c(n1)N(Cc1cscn1)C(=O)N(c1c(Cl)c(OC)cc(OC)c1Cl)C2` (racemic) [Compound I-69], in assay [2], the “duration of action against pFGFR4 signalling after washout” value is “prolonged inhibition of autophosphorylation of FGFR4; also recorded: prolonged duration of action”.
For the molecule `C=CC(=O)Nc1ccccc1Nc1ncc2c(n1)N(Cc1cccc(F)c1)C(=O)N(c1c(Cl)c(OC)cc(OC)c1Cl)C2` [Compound I-12], the IC50 at FGFR4-WT fell in the range of 101 to 500 nM. The molecule further showed an EC50 in assay [1] of 101 to 500 nM.

(Values after patent US9695132B2, “Heteroaryl compounds and uses thereof” (Celgene CAR LLC, priority 2013, dated 2017).)
